Experimental data taken from US7071197B2, “N,N-disubstituted diazocycloalkanes” (Recordati S.A., priority 2002, dated 2006).
Like-named read-outs stand apart in the source and are kept apart here.

Legend:
[1] = target: T1, human 5HT1A-serotonergic receptor (Homo sapiens, UniProt P08908); experiment: [3H]8-OH-DPAT radioligand binding to human recombinant 5-HT1A receptors; conditions: for Ki: [3H]8-OH-DPAT, HeLa cell membranes, read-out: Affinity: Ki
T1 construct: expressed in transfected cells
T1 sequence (P08908 1-422): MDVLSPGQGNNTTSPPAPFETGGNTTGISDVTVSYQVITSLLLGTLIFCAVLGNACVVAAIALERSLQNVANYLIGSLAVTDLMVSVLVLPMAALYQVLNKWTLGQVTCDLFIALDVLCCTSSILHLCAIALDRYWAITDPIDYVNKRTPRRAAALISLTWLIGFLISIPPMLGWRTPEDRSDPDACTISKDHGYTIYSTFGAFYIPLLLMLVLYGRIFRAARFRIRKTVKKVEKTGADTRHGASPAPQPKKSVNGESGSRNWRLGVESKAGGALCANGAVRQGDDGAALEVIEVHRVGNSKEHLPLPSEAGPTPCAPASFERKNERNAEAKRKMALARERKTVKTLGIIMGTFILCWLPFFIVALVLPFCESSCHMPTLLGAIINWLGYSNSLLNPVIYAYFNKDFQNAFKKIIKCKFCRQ
Protocol: (§1) A genomic clone coding for the human 5HT1A-serotonergic receptor was stably transfected in a human cell line (HeLa). HeLa cells were grown as monolayers in Dulbecco's modified Eagle medium (DMEM), containing 10% fetal bovine serum, gentamycin (0.1 mg/ml) and 5% carbon dioxide, at 37° C. The cells were detached from the growth flask at 95% confluence by a cell scraper and were lysed in cold 5 mM Tris and 5 mM EDTA buffer (pH 7.4). The homogenates were centrifuged at 40000×g×20 minutes and the pellets were resuspended in a small volume of cold 5 mM Tris and 5 mM EDTA buffer (pH 7.4) and immediately frozen and stored at −70° C. until use.
[^3H]8-OH-DPAT binding: on the day of experiment, the cell membranes were resuspended in incubation buffer: 50 mM Tris HCl (pH 7.4), 2.5 mM MgCl2, […] (Fargin et al., Nature 335, 358–360, 1988). The membranes were incubated in a final volume of 1 ml for 30 minutes at 30° C. with 1 nM [^3H]8-OH-DPAT, in the absence or presence of the test compounds. Non-specific binding was determined in the presence of 10 μM 5-HT. Incubation was stopped by addition of cold Tris-HCl buffer and rapid filtration through a 0.2%-polyethyleneimine-pretreated Whatman-GF/B or Schleicher-&-Schuell-GF52 filter.
The affinity of the tested compounds was evaluated as inhibition of specific binding of the radioligand to 5-HT1A receptors (IC50) by using the non-linear curve-fitting program (De Lean et al., Am. J. Physiol. 235, E97-E102, 1978). The IC50 value was converted to an affinity constant (Ki) by the equation of Cheng et al., Biochem. Pharmacol. 22, 3099–3108 (1973).

[2] = target: T2, human cloned 5-HT1A receptors (Homo sapiens, UniProt P08908); experiment: [35S]GTPγS binding, membranes of HeLa cells transfected with human cloned 5-HT1A receptors; format: biochemical; conditions: 5-HT maximal stimulation taken as 100%
T2 construct: expressed in transfected cells
T2 sequence (P08908 1-422): T1 sequence (P08908 1-422)
Protocol: as §1
[^35S]GTPγS binding: on the experimental day, cell membranes from HeLa cells transfected with human cloned 5-HT1A receptors were resuspended in buffer pH 7.4 containing 20 mM HEPES, 3 mM MgCl2 and 120 mM NaCl (Stanton, J. A.; Beer, M. S. Eur. J. Pharmacol. 320, 267–275, 1997). The membranes were incubated with 10 μM GDP and decreasing concentrations of test drugs (from 100 μM to 0.1 nM) or decreasing concentrations of 5-HT (from 100 μM to 0.1 nM, reference curve) for 20 min at 30° C. in a final volume of about 0.25 ml. [^35S]GTPγS ([…] in 10 μl) was added to samples and incubated for a further 30 min at 30° C. Non-specific binding was determined in the presence of 10 μM GTPγS. The incubation was stopped by addition of ice-cold HEPES buffer and rapid filtration on Unifilter GF/C filters, using a Filtermate cell harvester (Packard). The filters were washed four times with total 1.2 ml of same buffer. Radioactivity was counted by liquid scintillation spectrometry with efficiency >90% (TopCount Packard). Stimulation of [^35S]GTPγS binding induced by the compounds tested was espressed as % increase in binding above basal value, being the maximal stimulation observed with 5-HT taken as 100%. The concentration-response curve of the agonistic activity was analyzed by non linear fitting program (De Lean et al., Am. J. Physiol. 235, E97-E102, 1978).
A stimulation of [^35S]GTPγS binding represented the functional correlate of the binding of an agonist compound at the 5-HT1A receptors. Stimulation induced by the endogenous ligand 5-HT was considered the maximal stimulation attainable.

[3] = tested on: rhythmic bladder-voiding contractions in anaesthetised rats; experiment: Rhythmic bladder-voiding contractions induced by bladder filling in anaesthetised rats; format: in vivo, rat; conditions: for ED10 min (extrapolated dose inducing 10 minutes of disappearance of the contractions) / ED50: intravenous administration, anaesthetised rats; for ED50: Rattus norvegicus
Protocol: Female Sprague-Dawley rats weighing 225–275 g (Crl: CD® (SD) IGS BR, Charles River Italia) were used. The animals were housed with free access to food and water and maintained on a forced 12-hour alternating light-dark cycle at 22–24° C. for at least one week, except during the experiment. The activity on rhythmic bladder voiding contractions was evaluated according to the method of Dray (Dray J., Pharmacol. Methods, 13:157, 1985), with some modifications as in Guarneri (Guarneri, Pharmacol. Res. 27:173, 1993). Briefly, the rats were anaesthetised by subcutaneous injection of 1.25 g/kg (5 ml/kg) urethane, after which the urinary bladder was catheterised via the urethra using PE 50 polyethylene tubing filled with physiological saline. The catheter was tied in place with a ligature around the external urethral orifice and was connected to conventional pressure transducers (Statham P23 ID/P23 XL). […] The bladder was then filled via the recording catheter by incremental volumes of warm (37° C.) saline until reflex bladder-voiding contractions occurred (usually 0.81.5 ml). For intravenous injection of bioactive compounds, PE 50 polyethylene tubing filled with physiological saline was inserted into the jugular vein.
From the cystometrogram, the number of contractions recorded 15 minutes before (basal values) and after treatment, as well as the mean amplitude of these contractions (mean height of the peaks in mmHg), was evaluated.
Since most compounds produced an effect that was relatively rapid in onset and led to a complete cessation of bladder contractions, bioactivity was conveniently estimated by measuring the duration of bladder quiescence (i.e., the length of the time during which no contractions occurred). The number of tested animals showing a reduction in the number of contractions higher than 30% of that observed in the basal period was recorded too.
The extrapolated doses which induced a reduction in the number of contractions greater than 30% in 50% of the treated rats (ED50) were evaluated by the method of Bliss (Bliss C. I., Quart J. Pharm. Pharmacol. 11, 192–216, 1938).

Ki [1] [nM]	Functional effect ([35S]GTPγS binding) [2]	Compound	further results
0.5	Partial agonist	COc1ccccc1N1CCN(CC[C@@H](c2ccccc2F)[C@H](O)C2CCCCC2)CC1 [Ex. 1X, 1-[(3S,4R)-4-cyclohexyl-4-hydroxy-3-(2-fluorophenyl)-butyl]-4-(2-methoxyphenyl)-piperazine]	–
0.98	Partial agonist	COc1ccccc1N1CCN(CC[C@@H](c2ccccc2F)[C@@H](O)C2CCCCC2)CC1 [Ex. 2Y, 1-[(3S,4S)-4-cyclohexyl-4-hydroxy-3-(2-fluorophenyl)-butyl]-4-(2-methoxyphenyl)-piperazine]	–

The next lines start with the molecule.

Compound	Ki [1] [nM]	Functional effect ([35S]GTPγS binding) [2]	further results
O[C@@H](C1CCCCC1)[C@H](CCN1CCN(c2ccccc2OCC(F)(F)F)CC1)c1ccccc1F (racemic) [Ex. 3, 1-[(RS,SR)-4-cyclohexyl-4-hydroxy-3-(2-fluorophenyl)-butyl]-4-[2-(2,2,2-trifluoroethoxy)-phenyl]-piperazine]	0.29	Neutral antagonist	–
COc1ccccc1N1CCN(CCC(c2ccccc2F)C(O)C2CCCCC2)CC1 (stereo not shown) [Ex. 2, 1-[(RR-SS)-4-cyclohexyl-4-hydroxy-3-(2-fluorophenyl)-butyl]-4-(2-methoxyphenyl)-piperazine]	0.29	Neutral antagonist	potency at the 5-HT1A receptor compared with Ex. 5 ([1]; statistical signficance p<0.01): more potent than Ex. 5
OC(C1CCCCC1)C(CCN1CCN(c2ccccc2OCC(F)(F)F)CC1)c1ccccc1F (stereo not drawn) [Ex. 4, 1-[(RR,SS)-4-cyclohexyl-4-hydroxy-3-(2-fluorophenyl)-butyl]-4-[2-(2,2,2-trifluoroethoxy)-phenyl]-piperazine]	0.68	Neutral antagonist	–
Cc1c(-c2ccccc2)oc2c(C(=O)OCCN3CCCCC3)cccc2c1=O [Flavoxate]	–	–	ED10 min (extrapolated dose inducing 10 minutes of disappearance of the contractions) [3]: >10 mg/kg
CCN(CC)CC#CCOC(=O)C(O)(c1ccccc1)C1CCCCC1 (stereo not shown) [Oxybutynin]	–	–	ED50 ([3]; n.a. = not active, no significant reduction of the height of the peaks, read-out: ED50 (amplitude) (extrapolated dose inducing a 30% reduction of amplitude of the contractions in 50% of treated rats)): 0.24 mg/kg; ED50 ([3]; read-out: ED50 (frequency) (extrapolated dose inducing a reduction of the number of contractions > 30% in 50% of treated rats)): > 10 mg/kg; blockade of bladder contractions ([3]; at 240 μg/kg): did not cause a blockade of bladder contractions; ED10 min (extrapolated dose inducing 10 minutes of disappearance of the contractions) [3]: 7.77 mg/kg
